Laboratory results as given in patent US10028992B2, “Methods of treating muscular dystrophy” (BOARD OF REGENTS OF THE NEVADA SYSTEM OF HIGHER EDUCATION …, priority 2012, dated 2018).
Where two headings read alike, the source gives them in different places.

System: α7 integrin promoter
Test: muscle cell-based assay: α7βgal+/− myoblasts/myotubes, LacZ reporter, β-galactosidase cleavage of FDG
Set-up: species or system mouse; Results in α7+/− β-galactosidase assay: scale not given here
Conditions: for AC50 / Emax / EC50: Mus musculus; for AC50: read-out: Fit Log AC50 (converted); for Emax: read-out: Max Response [%]; for Fit Curve Class: key not given; for Result in α7+/− β-galactosidase assay / Results in α7+/− β-galactosidase assay: Myoblasts; for EC50: given as log AC50 (negative values), read-out: Fit LogAC50 (converted)
Method in brief: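 Fluorescein generated from FDG by β-galactosidase reports α7 integrin promoter activity in differentiated myoblasts from α7+/− LacZ knock-in pups. Screening hits then went to dose-response, western blotting and a myostatin counterscreen.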

[1] = Table 12, log of AC50, given with negative sign, unit of AC50 not given
[2] = Table 12, fitted activity at zero concentration
[3] = Table 12 Compound data, concentration-response curve fit

**Q.** What does the source list for `COc1cc2c(cc1NC(=O)Cc1ccc(C)cc1)oc1ccccc12` [Compound 5]?
**A.** Activity at 38.30 μM [%] ** (38.30 μM): 87.1241%; AC50 [1]: 1.12 µM; Emax: 87.1%; Fit HillSlope (Table 12, curve fit): 2.5334; Fit Zero Activity [%] [2]: −5.0637%; Fit Curve Class (Table 12): 1.1; Score [3]: 86

**Q.** For `CCOc1ccccc1NC(=O)c1cccc2c1C(=O)N(C1CCCCC1)C2` [drawing 707], which “Result in α7+/− β-galactosidase assay” value (0.5 uM) is on record?
**A.** Its value is 0.2793.

**Q.** What about the “Result in α7+/− β-galactosidase assay” value (1 uM) of the same molecule?
**A.** Its value is 0.1772.

**Q.** What about the “Result in α7+/− β-galactosidase assay” value (5 uM) of the same molecule?
**A.** Its value is −0.01616.

**Q.** What about the “Result in α7+/− β-galactosidase assay” value (10 uM) of the same molecule?
**A.** Its value is 0.02001.

**Q.** What about the “Result in α7+/− β-galactosidase assay” value (20 uM) of the same molecule?
**A.** Its value is 0.1258.

**Q.** What about the “Result in α7+/− β-galactosidase assay” value (40 uM) of the same molecule?
**A.** Its value is 0.02179.

**Q.** How did the “Results in α7+/− β-galactosidase assay” value (0.5 uM) turn out when `O=C1Nc2ccccc2/C1=C/c1ccccc1F` [drawing 591] was run?
**A.** The value was −0.0677.

**Q.** What about the “Results in α7+/− β-galactosidase assay” value (1 uM) of the same molecule?
**A.** Its value is −0.05193.

**Q.** What about the “Results in α7+/− β-galactosidase assay” value (5 uM) of the same molecule?
**A.** The value was 0.009111.

**Q.** What about the “Results in α7+/− β-galactosidase assay” value (10 uM) of the same molecule?
**A.** Its value is 0.1004.

**Q.** What about the “Results in α7+/− β-galactosidase assay” value (20 uM) of the same molecule?
**A.** The value was −0.4184.

**Q.** And the “Results in α7+/− β-galactosidase assay” value (40 uM)?
**A.** The value was −0.7444.

**Q.** Which EC50 does the source give for `Sc1nnc(Cn2cnc3ccccc32)n1-c1ccccc1` [Compound 189] here?
**A.** Its EC50 is 8.91 µM.

**Q.** And the Score (Table 12 compound data)?
**A.** Its Score is 42.

**Q.** What about the “Fit Curve Class” value (curve class number) of the same molecule?
**A.** The value was 2.2.

**Q.** And the “Fit HillSlope” value (curve fit)?
**A.** Its value is 0.8.

**Q.** What about the “Fit Zero Activity [%]” value (curve fit, activity at zero concentration) of the same molecule?
**A.** The value was 8.5392%.

**Q.** How did the “Fit HillSlope” value (Table 12, curve fit) turn out when `COc1ccc(-c2csc3ncnc(N4CCN(c5ccccc5[N+](=O)[O-])CC4)c23)cc1` [Compound 94] was run?
**A.** The value was 4.9549.

**Q.** What about the “Fit Infinite Activity [%]” value (Table 12, fitted activity at infinite concentration) of the same molecule?
**A.** The value was 138.031%.

**Q.** And the “Fit Zero Activity [%]” value [2]?
**A.** Its value is 9.6823%.

**Q.** What about the “Fit Curve Class” value (Table 12) of the same molecule?
**A.** The value was 2.1.

**Q.** What about the “Fit Log AC50” value [1] of the same molecule?
**A.** Its value is −5.

**Q.** And the Score [3]?
**A.** The Score was 43.

**Q.** With `Cc1ccccc1NC(=O)NCCCN1CCN(C)CC1` [drawing 329] as the molecule, how does the “Results in a α7+/− β-galactosidase assay, Myotubes, 0.5 uM” value (Myotubes, compound at 0.5 uM) read?
**A.** The value was 0.0927.

**Q.** What about the “Results in a α7+/− β-galactosidase assay, Myotubes, 1 uM” value (Myotubes, compound at 1 uM) of the same molecule?
**A.** Its value is 0.04605.

**Q.** And the “Results in a α7+/− β-galactosidase assay, Myotubes, 5 uM” value (Myotubes, compound at 5 uM)?
**A.** The value was −0.02688.

**Q.** What about the “Results in a α7+/− β-galactosidase assay, Myotubes, 10 uM” value (Myotubes, compound at 10 uM) of the same molecule?
**A.** The value was −0.00108.

**Q.** And the “Results in a α7+/− β-galactosidase assay, Myotubes, 20 uM” value (Myotubes, compound at 20 uM)?
**A.** The value was 0.01494.

**Q.** And the “Results in a α7+/− β-galactosidase assay, Myotubes, 40 uM” value (Myotubes, compound at 40 uM)?
**A.** Its value is −0.02803.

**Q.** With `CC(=O)Nc1ccc(NC(=O)c2cc(=O)c3cc(C)cc(C)c3o2)cc1` [drawing 596] as the molecule, how does the “Results in α7+/− β-galactosidase assay” value (0.5 uM) read?
**A.** The value was −0.1173.

**Q.** What about the “Results in α7+/− β-galactosidase assay” value (1 uM) of the same molecule?
**A.** Its value is −0.07551.

**Q.** And the “Results in α7+/− β-galactosidase assay” value (5 uM)?
**A.** Its value is −0.4622.

**Q.** What about the “Results in α7+/− β-galactosidase assay” value (10 uM) of the same molecule?
**A.** Its value is 0.1321.

**Q.** What about the “Results in α7+/− β-galactosidase assay” value (20 uM) of the same molecule?
**A.** The value was −0.5173.

**Q.** What about the “Results in α7+/− β-galactosidase assay” value (40 uM) of the same molecule?
**A.** Its value is −0.5206.

**Q.** `COC(=O)Cn1c(=O)c2c(nc3n2CC(C)CN3Cc2ccccc2)n(C)c1=O` (centres unmarked) [drawing 623] was tested. Which “Results in α7+/− β-galactosidase assay” value (0.5 uM) did it give?
**A.** Its value is −0.176.

**Q.** What about the “Results in α7+/− β-galactosidase assay” value (1 uM) of the same molecule?
**A.** Its value is −0.2606.

**Q.** What about the “Results in α7+/− β-galactosidase assay” value (5 uM) of the same molecule?
**A.** The value was −0.02637.

**Q.** And the “Results in α7+/− β-galactosidase assay” value (10 uM)?
**A.** The value was −0.1756.

**Q.** And the “Results in α7+/− β-galactosidase assay” value (20 uM)?
**A.** Its value is −0.2725.

**Q.** What about the “Results in α7+/− β-galactosidase assay” value (40 uM) of the same molecule?
**A.** Its value is −0.3826.

**Q.** `CC(=O)c1ccc(N(C(=O)CNC(=O)c2ccco2)C(C(=O)NC2CCCC2)c2ccc(C)o2)cc1` (centres unmarked) [Compound 146] was tested. Which EC50 did it give?
**A.** The EC50 was 10 µM.

**Q.** And the Score (Table 12 compound data)?
**A.** The Score was 42.

**Q.** What about the “Fit Curve Class” value (curve class number) of the same molecule?
**A.** The value was 2.1.

**Q.** And the “Fit HillSlope” value (curve fit)?
**A.** The value was 4.9549.

**Q.** What does the source list for `Cc1ccsc1CN(C)CC(=O)Cc1ccc([N+](=O)[O-])cc1Cl` [drawing 473]?
**A.** Results in a α7+/− β-galactosidase assay, Myotubes, 0.5 uM (Myotubes, compound at 0.5 uM): −0.05036; Results in a α7+/− β-galactosidase assay, Myotubes, 1 uM (Myotubes, compound at 1 uM): −0.06852; Results in a α7+/− β-galactosidase assay, Myotubes, 5 uM (Myotubes, compound at 5 uM): −0.2581; Results in a α7+/− β-galactosidase assay, Myotubes, 10 uM (Myotubes, compound at 10 uM): −0.2695; Results in a α7+/− β-galactosidase assay, Myotubes, 20 uM (Myotubes, compound at 20 uM): −0.1438; Results in a α7+/− β-galactosidase assay, Myotubes, 40 uM (Myotubes, compound at 40 uM): −0.2052

**Q.** Which results are given for `C#CC1(O)CCC2C3CCC4=C/C(=N/OCC(=O)NCC(=O)NC(C(=O)O)C(C)C)CC[C@]4(C)C3CC[C@@]21C` (some centres unmarked)?
**A.** Results in a α7+/− β-galactosidase assay, Myotubes, 0.5 uM: 0.1086; Results in a α7+/− β-galactosidase assay, Myotubes, 1 uM: 0.2546; Results in a α7+/− β-galactosidase assay, Myotubes, 5 uM: 0.3822; Results in a α7+/− β-galactosidase assay, Myotubes, 10 uM: 0.2484; Results in a α7+/− β-galactosidase assay, Myotubes, 20 uM: 0.1342; Results in a α7+/− β-galactosidase assay, Myotubes, 40 uM: 0.073

**Q.** How did the “Activity at 1.530 μM [%] **” value (1.530 μM) turn out when `COc1cc(/C=C/CN2CCN(Cc3ccc(C)o3)C(CCO)C2)ccc1O` (centres unmarked) [Compound 42] was run?
**A.** The value was 0%.

**Q.** What about the AC50 [1] of the same molecule?
**A.** Its AC50 is 14.1 µM.

**Q.** And the Emax?
**A.** The Emax was 481%.

**Q.** What about the “Fit HillSlope” value (Table 12, curve fit) of the same molecule?
**A.** Its value is 4.9549.

**Q.** What about the “Fit Zero Activity [%]” value [2] of the same molecule?
**A.** Its value is 9.6207%.

**Q.** What about the “Fit Curve Class” value (Table 12) of the same molecule?
**A.** Its value is 2.1.

**Q.** What about the Score [3] of the same molecule?
**A.** Its Score is 48.

**Q.** For `O=C(COc1ccc(Cl)cc1)N1CCN(C2CCCC2)CC1.O=C(O)C(=O)O`, which “Results in a α7+/− β-galactosidase assay, Myotubes, 0.5 uM” value is on record?
**A.** Its value is 0.1096.

**Q.** And the “Results in a α7+/− β-galactosidase assay, Myotubes, 1 uM” value?
**A.** The value was 0.06035.

**Q.** And the “Results in a α7+/− β-galactosidase assay, Myotubes, 5 uM” value?
**A.** The value was −0.07324.

**Q.** What about the “Results in a α7+/− β-galactosidase assay, Myotubes, 10 uM” value of the same molecule?
**A.** Its value is −0.04013.

**Q.** What about the “Results in a α7+/− β-galactosidase assay, Myotubes, 20 uM” value of the same molecule?
**A.** The value was −0.1813.

**Q.** And the “Results in a α7+/− β-galactosidase assay, Myotubes, 40 uM” value?
**A.** The value was −0.2711.

**Q.** What does the source list for `CCOc1ccc2nc(Cl)sc2c1` [drawing 578]?
**A.** Results in α7+/− β-galactosidase assay (0.5 uM): −0.06751; Results in α7+/− β-galactosidase assay (1 uM): 0.05388; Results in α7+/− β-galactosidase assay (5 uM): 0.04367; Results in α7+/− β-galactosidase assay (10 uM): −0.03134; Results in α7+/− β-galactosidase assay (20 uM): 0.1725; Results in α7+/− β-galactosidase assay (40 uM): 0.1336

**Q.** Which results are given for `CCCCNc1nnc(Cc2ccc(Cl)cc2)c(O)n1` [drawing 335]?
**A.** Results in a α7+/− β-galactosidase assay, Myotubes, 0.5 uM (Myotubes, compound at 0.5 uM): 0.2647; Results in a α7+/− β-galactosidase assay, Myotubes, 1 uM (Myotubes, compound at 1 uM): 0.1668; Results in a α7+/− β-galactosidase assay, Myotubes, 5 uM (Myotubes, compound at 5 uM): −0.1354; Results in a α7+/− β-galactosidase assay, Myotubes, 10 uM (Myotubes, compound at 10 uM): −0.08652; Results in a α7+/− β-galactosidase assay, Myotubes, 20 uM (Myotubes, compound at 20 uM): −0.07223; Results in a α7+/− β-galactosidase assay, Myotubes, 40 uM (Myotubes, compound at 40 uM): −0.1
